Experimental data: ChEMBL document CHEMBL1201862, “PubChem BioAssay data set” (2004)
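Compound exposure: 48 hours, 5 concentrations, 96-well plates. GI50 is the concentration that inhibits growth by half.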 Calls of active or inactive are those of the source. Rule as the data show it: active = GI50 up to about 1.1 µM and inactive = higher.

How the values were obtained:
Assay in all cases: DTP human tumour cell line panel, 48 h
U-251 = test system: U-251
SK-MEL-2 = test system: SK-MEL-2
EKVX = test system: EKVX
SK-MEL-28 = test system: SK-MEL-28
RPMI-8226 = test system: RPMI-8226
Malme-3M = test system: Malme-3M
KM12 = test system: KM12
SK-MEL-5 = test system: SK-MEL-5
786-0 = test system: 786-0
LOX IMVI = test system: LOX IMVI
HCT-15 = test system: HCT-15
IGROV-1 = test system: IGROV-1
UO-31 = test system: UO-31
SNB-19 = test system: SNB-19
SF-268 = test system: SF-268
CAKI-1 = test system: CAKI-1

Structure (SMILES) | GI50 (U-251) | GI50 (SK-MEL-2) | GI50 (EKVX) | GI50 (SK-MEL-28) | GI50 (RPMI-8226) | GI50 (Malme-3M) | GI50 (KM12) | GI50 (SK-MEL-5) | GI50 (786-0) | GI50 (LOX IMVI) | GI50 (HCT-15) [µM] | GI50 (IGROV-1) | GI50 (UO-31) | GI50 (SNB-19) | GI50 (SF-268) | GI50 (CAKI-1)
COC(=O)CC[C@]12C[C@]13CC[C@]1(C)C4C(C)C[C@]5(CC(C)C(=O)O5)OC4CC1(C)C3CCC2C(C)(C)O (some centres undefined) | 62.2 µM (inactive) | 26.7 µM (inactive) | > 100 µM (inactive) | 84.9 µM (inactive) | 25.4 µM (inactive) | > 100 µM (inactive) | 48.3 µM (inactive) | 35.6 µM (inactive) | > 100 µM (inactive) | 32.5 µM (inactive) | 50.9 | 65.6 µM (inactive) | 59.2 µM (inactive) | 51.2 µM (inactive) | 81.1 µM (inactive) | –
C[C@]12CCC(=O)C[C@H]1CCC(O)[C@@H]2Br (some centres undefined) | > 100 µM (inactive) | > 100 µM (inactive) | – | > 100 µM (inactive) | > 100 µM (inactive) | > 100 µM (inactive) | > 100 µM (inactive) | > 100 µM (inactive) | > 100 µM (inactive) | > 100 µM (inactive) | > 100 | > 100 µM (inactive) | > 100 µM (inactive) | > 100 µM (inactive) | > 100 µM (inactive) | > 100 µM (inactive)
COc1ccc(O)cc1C=O | > 100 µM (inactive) | – | > 100 µM (inactive) | 65.3 µM (inactive) | 60.1 µM (inactive) | 46.3 µM (inactive) | 23.8 µM (inactive) | 61 µM (inactive) | > 100 µM (inactive) | 54 µM (inactive) | 37.6 | > 100 µM (inactive) | > 100 µM (inactive) | > 100 µM (inactive) | > 100 µM (inactive) | –
CCOc1ccccc1/N=N/c1ccc2oc(=O)c(C(=O)Nc3cccc(C)c3)cc2c1 | 25.6 µM (inactive) | 19.8 µM (inactive) | 25.7 µM (inactive) | 26 µM (inactive) | 24.5 µM (inactive) | 29.9 µM (inactive) | 30 µM (inactive) | 15.1 µM (inactive) | 34 µM (inactive) | 14.7 µM (inactive) | 25.4 | 39.5 µM (inactive) | 16.6 µM (inactive) | 20.3 µM (inactive) | 29.4 µM (inactive) | 49.8 µM (inactive)
CCCCCC/C=C1\CCC(CN2CCCC2)C1=O (centres undefined) | 15.6 µM (inactive) | 15.8 µM (inactive) | 18.5 µM (inactive) | 19.1 µM (inactive) | 2.01 µM (inactive) | 19.2 µM (inactive) | 3.56 µM (inactive) | 18.6 µM (inactive) | 2.61 µM (inactive) | 8.3 µM (inactive) | 9.16 | 19.7 µM (inactive) | 18.9 µM (inactive) | > 38.5 µM (inactive) | 18.5 µM (inactive) | > 38.5 µM (inactive)
O=C(CCN1CCCCC1CCO)Nc1ccc2c(c1)C(=O)c1ccc(NC(=O)CCN3CCCCC3CCO)cc1C2=O (centres undefined) | 4.08 µM (inactive) | 2.49 µM (inactive) | 7.41 µM (inactive) | 10.1 µM (inactive) | 4.45 µM (inactive) | 2.64 µM (inactive) | 2.54 µM (inactive) | 9.4 µM (inactive) | 1.97 µM (inactive) | 2.99 µM (inactive) | 11.2 | 4.9 µM (inactive) | > 100 µM (inactive) | 6.07 µM (inactive) | 4.88 µM (inactive) | 23.7 µM (inactive)
COc1ccc(C2S/C(=C\c3cccc(O)c3)C(=O)N2NC(=O)Cc2ccccc2)cc1 (centres undefined) | > 100 µM (inactive) | > 100 µM (inactive) | – | – | > 100 µM (inactive) | > 100 µM (inactive) | > 100 µM (inactive) | > 100 µM (inactive) | > 100 µM (inactive) | > 100 µM (inactive) | > 100 | > 100 µM (inactive) | > 100 µM (inactive) | – | > 100 µM (inactive) | > 100 µM (inactive)
C[C@@H]1C[C@]2(C[C@@H](C)C3[C@@H](CC4(C)[C@@H]5CCC6C(C)(C)OC(=O)C=C[C@]67C[C@@]5(CC[C@]34C)OO7)O2)OC1=O (some centres undefined) | 73.3 µM (inactive) | 50.4 µM (inactive) | – | 66.7 µM (inactive) | > 100 µM (inactive) | 37.9 µM (inactive) | – | 37.9 µM (inactive) | > 100 µM (inactive) | 44.2 µM (inactive) | > 100 | 56.2 µM (inactive) | 51.8 µM (inactive) | 49.4 µM (inactive) | – | –
Cc1c(-c2nnc(-c3ccc(Cl)cc3)o2)c(=O)n(-c2ccccc2)n1C | > 100 µM (inactive) | > 100 µM (inactive) | > 100 µM (inactive) | > 100 µM (inactive) | > 100 µM (inactive) | > 100 µM (inactive) | > 100 µM (inactive) | – | > 100 µM (inactive) | > 100 µM (inactive) | > 100 | > 100 µM (inactive) | > 100 µM (inactive) | > 100 µM (inactive) | > 100 µM (inactive) | –
Oc1c2c(nc3cc4c(cc13)OCO4)-c1ccccc1CC2 | > 100 µM (inactive) | > 100 µM (inactive) | > 100 µM (inactive) | > 100 µM (inactive) | > 100 µM (inactive) | > 100 µM (inactive) | – | > 100 µM (inactive) | > 100 µM (inactive) | > 100 µM (inactive) | > 100 | > 100 µM (inactive) | > 100 µM (inactive) | > 100 µM (inactive) | > 100 µM (inactive) | –
CCC(C)CNC1=C(NC(C)=O)C(=O)c2ccccc2C1=O (centres undefined) | > 100 µM (inactive) | > 100 µM (inactive) | > 100 µM (inactive) | > 100 µM (inactive) | – | 35.5 µM (inactive) | > 100 µM (inactive) | 31.6 µM (inactive) | > 100 µM (inactive) | > 100 µM (inactive) | > 100 | > 100 µM (inactive) | > 100 µM (inactive) | > 100 µM (inactive) | > 100 µM (inactive) | –
Nc1nc(-c2ccco2)cc(-c2ccco2)n1 | > 100 µM (inactive) | > 100 µM (inactive) | > 100 µM (inactive) | > 100 µM (inactive) | > 100 µM (inactive) | > 100 µM (inactive) | > 100 µM (inactive) | > 100 µM (inactive) | > 100 µM (inactive) | > 100 µM (inactive) | > 100 | > 100 µM (inactive) | 42.7 µM (inactive) | 41.8 µM (inactive) | > 100 µM (inactive) | –
CN(C)c1ccc(/C=C(\C#N)C(=O)c2ccccc2)cc1Br | > 100 µM (inactive) | > 100 µM (inactive) | > 100 µM (inactive) | 46.5 µM (inactive) | 25.8 µM (inactive) | > 100 µM (inactive) | > 100 µM (inactive) | 96.2 µM (inactive) | > 100 µM (inactive) | 25.5 µM (inactive) | – | – | > 100 µM (inactive) | > 100 µM (inactive) | > 100 µM (inactive) | > 100 µM (inactive)
C/C=C(/CCC1NCCC2c3ccccc3NC12)[Si](C)(C)C (centres undefined) | 12.8 µM (inactive) | 13.8 µM (inactive) | 14.4 µM (inactive) | 5.2 µM (inactive) | 2.84 µM (inactive) | – | 4.52 µM (inactive) | 12.8 µM (inactive) | 11.3 µM (inactive) | 7.31 µM (inactive) | 12.4 | 12.8 µM (inactive) | 7.08 µM (inactive) | 15.5 µM (inactive) | 9.31 µM (inactive) | 10.8 µM (inactive)
N/N=C1\c2ccccc2C2/C(=N\N)c3ccccc3C12 (centres undefined) | > 100 µM (inactive) | > 100 µM (inactive) | > 100 µM (inactive) | > 100 µM (inactive) | > 100 µM (inactive) | > 100 µM (inactive) | > 100 µM (inactive) | > 100 µM (inactive) | > 100 µM (inactive) | > 100 µM (inactive) | > 100 | > 100 µM (inactive) | > 10 µM (inactive) | > 100 µM (inactive) | > 100 µM (inactive) | > 100 µM (inactive)
COc1cc(Nc2cnc3ccc(N)cc3n2)cc(OC)c1OC | > 100 µM (inactive) | > 100 µM (inactive) | > 100 µM (inactive) | 78.2 µM (inactive) | 16.6 µM (inactive) | > 65.2 µM (inactive) | 39.4 µM (inactive) | 16.9 µM (inactive) | > 100 µM (inactive) | 36.6 µM (inactive) | 69.2 | 80.4 µM (inactive) | 37.8 µM (inactive) | > 100 µM (inactive) | > 100 µM (inactive) | 59.2 µM (inactive)
Cn1ncnc1CCc1ccccc1 | > 100 µM (inactive) | > 100 µM (inactive) | – | > 100 µM (inactive) | > 100 µM (inactive) | > 100 µM (inactive) | > 100 µM (inactive) | > 100 µM (inactive) | > 100 µM (inactive) | > 100 µM (inactive) | > 100 | > 100 µM (inactive) | > 100 µM (inactive) | – | > 100 µM (inactive) | > 100 µM (inactive)
CC(C)(C)c1ccccc1NS(=O)(=O)c1ccccc1 | > 100 µM (inactive) | > 100 µM (inactive) | > 100 µM (inactive) | > 100 µM (inactive) | 60.8 µM (inactive) | > 100 µM (inactive) | 65 µM (inactive) | 42.4 µM (inactive) | > 100 µM (inactive) | – | > 100 | > 100 µM (inactive) | 30.1 µM (inactive) | – | – | 64 µM (inactive)
N=C(c1ccccc1)N1CCCCC1 | > 100 µM (inactive) | > 100 µM (inactive) | > 100 µM (inactive) | > 100 µM (inactive) | – | 49 µM (inactive) | > 100 µM (inactive) | – | > 100 µM (inactive) | > 100 µM (inactive) | – | – | > 100 µM (inactive) | > 100 µM (inactive) | > 100 µM (inactive) | > 100 µM (inactive)
